The values below come from ChEMBL document CHEMBL1145740, “Novel alpha-amino-acid phenolic ester derivatives with intravenous anaesthetic activity” (Bioorg Med Chem Lett, 2003).

For experiment [1], the system named is Mus musculus. Kind of experiment: Intravenous hypnotic dose that caused a loss of righting reflex for a minimum period of 30s in 50% of treated mice determined by probit analysis. The experiment is classed as functional.
Experiment [2] deals with GABA-A receptor; anion channel. As to the kind of experiment: In vitro inhibition of [35S]TBPS binding to GABA-A receptor of rat whole brain membranes. The experiment is classed as cell membranes.

SMILES strings stand for the structures. A value given as a limit tells only on which side of the number the result lay.

For orientation: IC50 means the concentration that inhibits the measured activity by half. Higher therefore signals a need for much substance. For the molecule `COc1cc(C)cc(OC)c1OC(=O)C(CCS(C)(=O)=O)N1C=CCCC1` (stereo not given), the HD50 in experiment [1] stood at 39.3 µM/kg. Further, the IC50 in experiment [2] turned out to be 6.2 µM. In experiment [1], `COc1cccc(OC)c1OC(=O)C(CCS(C)(=O)=O)N1CCOCC1` (stereo not given) returned an HD50 of 99 µM/kg. In experiment [1], `COC(=O)CC(C(=O)Oc1c(OC)cccc1OC)N1CCCCCC1` (stereo not given) yielded an HD50 of 22.9 µM/kg. For the same molecule, in experiment [2], the IC50 came to 4.2 µM. `COC(=O)CC(C(=O)Oc1c(OC)cc(C)cc1OC)N1CCCCC1` (stereo not given) displayed an HD50 in experiment [1] of 48 µM/kg. This molecule also showed an IC50 in experiment [2] of 14.7 µM.

In turn, `COC(=O)CC(C(=O)Oc1c(OC)cc(C)cc1OC)N1CCOCC1` (stereo not given) yielded an HD50 in experiment [1] of 46 µM/kg. For `COC(=O)CC(C(=O)Oc1c(OC)cccc1OC)N1CCCCC1` (stereo not given), the HD50 in experiment [1] turned out to be 26.4 µM/kg. The molecule further came in with an IC50 in experiment [2] of 11.7 µM.

Consider `COc1cc(C)cc(OC)c1OC(=O)C(CCSC)N1CCOCC1` (stereo not given), for which, in experiment [1], the HD50 amounted to 34.8 µM/kg.

`COCCN(CCOC)C(CCS(C)(=O)=O)C(=O)Oc1c(OC)cccc1OC` (stereo not given) displayed an HD50 in experiment [1] of over 106 µM/kg. Still for that read-out and setting: then `COCCN(CCOC)C(CCS(C)(=O)=O)C(=O)Oc1c(OC)cc(C)cc1OC` (stereo not given), with 77 µM/kg. Same read-out and setting: the figure for `COC(=O)CC(C(=O)Oc1c(OC)cc(C)cc1OC)N1CCCCCC1` (stereo not given) is 26 µM/kg; for `COC(=O)CC(C(=O)Oc1c(OC)cccc1OC)N1CCOCC1` (stereo not given) it is 79 µM/kg. In the case of `COc1cccc(OC)c1OC(=O)C(CCSC)N1CCCCC1` (stereo not given), the HD50 in experiment [1] is under 25 µM/kg. In addition, the IC50 in experiment [2] came out at 4 µM.

The molecule `COC(=O)CC(C(=O)Oc1c(OC)cccc1OC)N1CCCC1` (stereo not given) had an HD50 in experiment [1] of 77 µM/kg. On the same count and under the same terms, the figure for `COC(=O)CC(C(=O)Oc1c(OC)cc(C)cc1OC)N1CCCC1` (stereo not given) is 52 µM/kg; for `COc1cccc(OC)c1OC(=O)C(CC(=O)N1CCCCC1)N1CCCCC1` (stereo not given) it is 39 µM/kg; for `COc1cc(C)cc(OC)c1OC(=O)C(CC[S+](C)[O-])N1CCCC1` (stereo not given) it is 73 µM/kg. In experiment [1], `COc1cccc(OC)c1OC(=O)C(CC(=O)N1CCCC1)N1CCCCCC1` (stereo not given) came in with an HD50 of 34 µM/kg.

`COc1cc(C)cc(OC)c1OC(=O)C(CC(=O)N1CCOCC1)N1CCOCC1` (stereo not given) had an HD50 in experiment [1] of over 218 µM/kg. `COCCN(CCOC)C(CCSC)C(=O)Oc1c(OC)cc(C)cc1OC` (stereo not given) displayed an HD50 in experiment [1] of 22.6 µM/kg. Moreover, in experiment [2], the IC50 came out at 6.9 µM.

`COc1cccc(OC)c1OC(=O)C(CCSC)N1CCOCC1` (stereo not given): in experiment [1], the HD50 was 26.1 µM/kg. `COc1cc(C)cc(OC)c1OC(=O)C(CCSC)N1CCCC1` (stereo not given) showed an HD50 in experiment [1] of 31.4 µM/kg. For the same molecule, the IC50 in experiment [2] was determined as 2.7 µM. With `COc1cc(C)cc(OC)c1OC(=O)C(CC(=O)N1CCCC1)N1CCCCCC1` (stereo not given), in experiment [1], the HD50 was 67 µM/kg.

For the molecule `COc1cc(C)cc(OC)c1OC(=O)C(CCS(C)(=O)=O)N1CCOCC1` (stereo not given), the HD50 in experiment [1] amounted to 108 µM/kg. Still for that read-out and setting: then `COc1cc(C)cc(OC)c1OC(=O)C(CC(=O)N1CCCCC1)N1CCCCC1` (stereo not given), with 37.5 µM/kg; and `CCN(CC)C(=O)CC(C(=O)Oc1c(OC)cc(C)cc1OC)N1CCOCC1` (stereo not given), with 38 µM/kg; and `COc1cccc(OC)c1OC(=O)C(CCSC)N1CCCC1` (stereo not given), with 40 µM/kg. `COc1cc(C)cc(OC)c1OC(=O)C(CC(=O)N1CCCC1)N1CCCC1` (stereo not given) came in with an HD50 in experiment [1] of 81 µM/kg.

Consider `COc1cc(C)cc(OC)c1OC(=O)C(CC[S+](C)[O-])N1CCOCC1` (stereo not given), for which the HD50 in experiment [1] amounted to 299 µM/kg. Still for that read-out and setting: the figure for `COc1cccc(OC)c1OC(=O)C(CCSC)N1CCCCCCC1` (stereo not given) is 35 µM/kg.

Take `COc1cccc(OC)c1OC(=O)C(CCSC)N1CCCCCC1` (stereo not given): the HD50 in experiment [1] is 18.2 µM/kg. For the same molecule, the IC50 in experiment [2] was 9.7 µM. With `COc1cccc(OC)c1OC(=O)C(CC(=O)N1CCCC1)N1CCCC1` (stereo not given), the HD50 in experiment [1] came out at 102 µM/kg. Still for that read-out and setting: the figure for `CCN(CC)C(=O)CC(C(=O)Oc1c(OC)cccc1OC)N1CCOCC1` (stereo not given) is 117 µM/kg; for `COc1cccc(OC)c1OC(=O)C(CC(=O)N1CCOCC1)N1CCOCC1` (stereo not given) it is over 225 µM/kg.

On to `COCCN(CCOC)C(CC(=O)OC)C(=O)Oc1c(OC)cc(C)cc1OC` (stereo not given), for which the HD50 in experiment [1] turned out to be 48 µM/kg. Same read-out and setting: the figure for `COCCN(CCOC)C(CC(=O)OC)C(=O)Oc1c(OC)cccc1OC` (stereo not given) is 48 µM/kg; for `CC[C@H](C(=O)Oc1c(OC)cc(C)cc1OC)N(CCOC)CCOC` [ORG-24447] it is 21.7 µM/kg; for `CC(C)c1cccc(C(C)C)c1O` [PROPOFOL] it is 68 µM/kg.
